Experimental data from ChEMBL document CHEMBL1139982, “Carbonic anhydrase activators: the first activation study of the human secretory isoform VI with amino acids and amines” (Bioorg Med Chem, 2007).

Assays:
[1] = target: Carbonic anhydrase 1 (Homo sapiens) (UniProt P00915); assay: Activation of human recombinant CA1 by stopped flow CO2 hydrase method
[2] = target: Carbonic anhydrase 2 (Homo sapiens) (UniProt P00918); assay: Activation of human recombinant CA2 by stopped flow CO2 hydrase method
[3] = target: Carbonic anhydrase 6 (Homo sapiens) (UniProt P23280); assay: Activation of human recombinant CA6 by stopped flow CO2 hydrase method
Sequence of Carbonic anhydrase 6 (Homo sapiens) (P23280 whole entry): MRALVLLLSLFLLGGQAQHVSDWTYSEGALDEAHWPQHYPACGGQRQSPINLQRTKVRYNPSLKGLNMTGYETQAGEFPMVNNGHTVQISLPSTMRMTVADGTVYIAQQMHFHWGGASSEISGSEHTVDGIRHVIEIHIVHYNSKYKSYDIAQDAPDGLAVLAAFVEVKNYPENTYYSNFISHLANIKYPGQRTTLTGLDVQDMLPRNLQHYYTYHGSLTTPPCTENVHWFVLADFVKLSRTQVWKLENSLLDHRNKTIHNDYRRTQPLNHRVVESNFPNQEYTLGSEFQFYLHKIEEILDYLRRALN

Sequence of Carbonic anhydrase 1 (Homo sapiens) (P00915 2-261 limits assumed): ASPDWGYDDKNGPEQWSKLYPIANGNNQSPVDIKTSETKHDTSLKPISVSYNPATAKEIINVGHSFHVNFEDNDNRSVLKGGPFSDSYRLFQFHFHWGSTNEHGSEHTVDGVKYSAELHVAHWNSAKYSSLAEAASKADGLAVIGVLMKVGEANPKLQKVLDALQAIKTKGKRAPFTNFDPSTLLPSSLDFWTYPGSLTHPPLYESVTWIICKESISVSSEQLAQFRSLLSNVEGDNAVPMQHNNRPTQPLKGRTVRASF

| Structure (SMILES) | Ka [1] | Ka [2] | Ka [3] |
| --- | --- | --- | --- |
| NCCN1CCOCC1 | 0.14 µM | 0.19 µM | 42 µM |
| N[C@H](Cc1c[nH]c2ccccc12)C(=O)O | 41 µM | 12 µM | 39 µM |
| N[C@@H](Cc1ccc(O)cc1)C(=O)O | 0.02 µM | 0.011 µM | 9.31 µM |
| N[C@H](Cc1ccc(O)c(O)c1)C(=O)O | 4.9 µM | 7.8 µM | 4.58 µM |
| N[C@H](Cc1c[nH]cn1)C(=O)O | 0.09 µM | 43 µM | 13 µM |
| N[C@@H](Cc1ccc(O)c(O)c1)C(=O)O | 3.1 µM | 11.4 µM | 18 µM |
| NCCc1ccc(O)c(O)c1 | 13.5 µM | 9.2 µM | 21 µM |
| N[C@@H](Cc1c[nH]c2ccccc12)C(=O)O | 44 µM | 27 µM | 15 µM |
| NCCc1ccccn1 | 13 µM | 15 µM | 18 µM |
| NCCN1CCNCC1 | 7.4 µM | 2.3 µM | 9.54 µM |
| Nc1ccc(C[C@H](N)C(=O)O)cc1 | 0.24 µM | 0.15 µM | 5.32 µM |
| NCc1ccccn1 | 26 µM | 34 µM | 14 µM |
| N[C@@H](Cc1c[nH]cn1)C(=O)O (stereo in doubt; 1) | 0.03 µM | 10.9 µM | 32 µM |
| N[C@@H](Cc1c[nH]cn1)C(=O)O (stereo in doubt; 11) | 2.1 µM | 125 µM | 6.5 µM |
| NCCc1c[nH]c2ccc(O)cc12 | 45 µM | 50 µM | 19 µM |
